Counter-ions that a name gives are not always drawn.
Columns and labels:
[1] = target: (^3 H)naloxone binding sites; experiment: competition binding assay with (3H)naloxone on rat brain membranes; details: membranes incubated with (3H)naloxone 1 nM and increasing ligand concentrations; read-out: Affinity constants (Ki nM) in competition assays
Procedure: Membrane preparation: A crude membrane fraction from rat brain (PVG/C strain) was prepared [Mol. Pharm.11 (1975) 340-351 and the protein content was defined [Anal. Biochem. 72(1976) 248-254).
The membrane suspension (200-400 μg protein) was incubated with the specific radioligand for 1 hour on ice. Incubations were terminated by rapid filtration under vacuo followed by washing with ice cold tris HCl buffer (50 mM, pH 7,4). Radioactivity was measured in a toluene based scintillation mixture on a LKB Minibeta Liquid Scintillation Spectrophotometer. Nonspecific binding was defined in the presence of 10 μM unlabeled naloxone. All assays were performed in triplicate and repeated several times. Ki values were determined from equilibrium experiments and calculated with the Tshang-Prusov equation. The data were evaluated using the Ligand program [Anal. Biol. Chem. 107 (1980) 220-239](Data shown on Table III/1).

[2] = system: rat; experiment: analgetic effect, hot plate (rat); format: in vivo; details: for ED50: Rattus norvegicus, read-out: hot plate (rat) ED50
[3] = system: rat; experiment: analgetic effect, tail flick (rat); format: in vivo; details: Rattus norvegicus; read-out: tail flick (rat) ED50
[4] = system: rat; experiment: animal or person; details: read-out: algolyt. test (rat) 100% activity
[5] = system: mice; experiment: analgetic effect, writhing test (mice); format: in vivo; details: Mus musculus; read-out: writhing test (mice) ED50
[6] = system: rats; experiment: sedative (narcosis potentiating) effect, Inactine base narcotic, rats; format: in vivo; details: s.c. on rats; Inactine 35 mg/kg; dose as base
Procedure: Inactine (35 mg/kg) was used as a base narcotic.
*ED500 % = dose increasing narcosis to five times the control.

[7] = system: rabbits; experiment: effects on respiration on conscious rabbits (III.5, Marey-drum)
Procedure: Investigation was carried out on conscious rabbits of both sexes and of 3-4 kg weight by way of a Marey-drum. Frequency and amplitude of respiration were quantitatively evaluated.

| Structure (SMILES) | Ki [1] [nM] | ED50 [2] [mg/kg] | ED50 [3] [mg/kg] | ED100 [4] [mg/kg] | also measured |
| --- | --- | --- | --- | --- | --- |
| CN1CC[C@]23c4c5ccc(O)c4O[C@H]2C(=NNc2ccccc2)CC[C@H]3[C@H]1C5 [dihydromorphinone phenylhydrazone] | 5 | – | – | – | – |
| CN1CC[C@]23c4c5ccc(O)c4O[C@H]2C(=NN)CC[C@H]3[C@H]1C5 [dihydromorphinone hydrazone] | 6 | – | – | – | – |
| COc1ccc2c3c1O[C@H]1C(=NNC(N)=S)CC[C@H]4[C@@H](C2)N(C)CC[C@]314 [Dihydrocodeinone thio-semicarbazone.HCl, Dihydrocodeinone thio-semicarbazone] | – | 1.7 | 0.6 | 5 | – |
| COc1ccc2c3c1O[C@H]1C(=O)CC[C@H]4[C@@H](C2)N(C)CC[C@]314 [Dihydrocodeinone, reference compound] | – | 2.2 | 0.98 | 4.9 | ED50 [5]: 0.9 mg/kg; ED500 % (dose increasing narcosis to five times the control) [6]: 1,9 mg/kg; respiration effect ([7]; 10-5500 μg/kg i.v., s.c.): depression; respiration frequency/min. ([7]; 10-5500 μg/kg i.v., s.c.): .dwnarw.; respiration volume ([7]; 10-5500 μg/kg i.v., s.c.): .dwnarw.; influence on the respiratory depression effect of morphine (in words) ([7]; rabbit, in vivo): unambiguously potentiate the respiratory depression effect of morphine; respiratory depression by the compound alone (in words) ([7]; rabbit, in vivo, sc): cause respiratory depression |
| COc1ccc2c3c1O[C@H]1C(=NNC(N)=S)CC[C@@]4(O)[C@@H](C2)N(C)CC[C@]314 [Oxycodone-thiosemicarbazone.HCl, Oxycodone-thiosemicarbazone] | – | 8.5 | 4.5 | 100 | – |
| CN1CC[C@]23c4c5ccc(O)c4O[C@H]2C(=NNC(N)=O)CC[C@H]3[C@H]1C5 [dihydromorphinone semicarbazone] | 3 | – | – | – | – |
| CN1CC[C@]23c4c5ccc(O)c4O[C@H]2C(=NO)CC[C@H]3[C@H]1C5 [dihydromorphinone oxime] | 2 | – | – | – | – |
| CN1CC[C@]23c4c5ccc(O)c4O[C@H]2C(=NN)CC[C@@]3(O)[C@H]1C5 [oxymorphone hydrazone] | 2 | – | – | – | – |
| CN1CC[C@]23c4c5ccc(O)c4O[C@H]2C(=NO)CC[C@@]3(O)[C@H]1C5 [oxymorphone oxime] | 2 | – | – | – | – |
| COc1ccc2c3c1O[C@H]1C(=NNC(N)=O)CC[C@H]4[C@@H](C2)N(C)CC[C@]314 [Dihydrocodeinone-semicarbazone.HCl, dihydrocodeinone-semicarbazone] | – | 0.38 | 0.35 | 10 | hot plate (rat) ED50 ([2]; rat): 0,38 mg/kg; ED500 % (dose increasing narcosis to five times the control) [6]: 1,0 mg/kg |
| CN1CC[C@]23c4c5ccc(O)c4O[C@H]2C(=NNc2ccccc2)CC[C@@]3(O)[C@H]1C5 [oxymorphone phenylhydrazone] | 20 | – | – | – | – |
| CN1CC[C@]23c4c5ccc(O)c4O[C@H]2C(=NNC(N)=O)CC[C@@]3(O)[C@H]1C5 [oxymorphone semicarbazone] | 4 | – | – | – | – |

Source: patent US5317022A, “Pharmaceutical composition and use” (priority 1991, dated 1994)
